Patent US20050220726A1, “Use of sugar esters in cosmetic and/or pharmaceutical preparations” (priority 2003, published 2005)

Assays:
[1] = test system: Staphylococcus epidermidis; experiment: Agar diffusion method, inhibition zones; format: cell-based; settings: filter paper with 20 μl test substance; 18 to 24 h at 37° C.
Description: (§1) The antibacterial activity of the test substances was tested by the diffusion method on agar plates or the agar dilution method. In this method, a round filter paper of defined diameter is first impregnated with the test solution and then applied to the surface of an agar plate inoculated beforehand with the test microorganisms. The size of the inhibition zones is then determined after defined times. In particular, it is possible by this method to determine the MIC (Minimum Inhibitory Concentration) as the lowest concentration of test substance with which complete inhibition of the microorganisms can be obtained.
(§2) Agar diffusion method. The inoculum was prepared using a fresh culture in a stationary growth phase (after ca. 18-24 h) in a BHI solution (brain-heart Infusion). The bacterial suspension was adjusted to 0.5 MacFarland units, corresponding to 1.5 10^8 colony-forming units (cfu)/ml; the suspension was then diluted with a sodium chloride solution (1:100) to adjust a value of 1.5 10^6 cfu/ml. Mueller-Hinton agar (Staphylococcus epidermidis, Staphylococcus aureus) and Wilkins-Chalgrens agar containing 5% by weight sheep's blood (Propionibacterium acnes) were then sterilized for 15 mins. at 121° C. and then placed in Petri dishes. 2 to 4 ml of the bacterial suspension were then added to the Petri dishes, followed by drying at room temperature. The filter papers were impregnated with 20 μl of the test substances and applied to the surface of the agar plates. The inoculated Petri dishes were incubated for 18 to 24 h at 37° C. (the Petri dishes containing Propionibacterium acnes under anaerobic conditions) and the antimicrobial activity was then determined by determination of the growth inhibition zones. The results are set out in Table 10 and represent the diameters of the inhibition zones in mm.

Propionibacterium acnes = experiment: Agar diffusion method, inhibition zones; format: cell-based; settings: filter paper with 20 μl test substance; 18 to 24 h at 37° C., anaerobic
Description: as §1, §2

Staphylococcus aureus = experiment: Agar diffusion method, inhibition zones; format: cell-based; settings: filter paper with 20 μl test substance; 18 to 24 h at 37° C.
Description: as §1, §2

human fibroblasts = experiment: Anti-stress effect on UV-A-damaged fibroblasts; format: cell-based; settings: + UV-A 20 J/cm^2; for Cell proteins: blank sample = 100; for GSH/proteins: blank sample = 100, blank + UV-A = 65
Description: UV-A radiation in the 320 to 400 nm range induces oxidative stress which is mainly produced by the activation of photosensitive biological components which in turn catalyze the formation of ROS-like superoxide anions, hydrogen peroxide and singlet oxygen atoms. The anti-UV-A effect was tested on fibroblasts because UV-A radiation penetrates through the dermis where it causes oxidative damage by lipoperoxidation of the cell membrane and a reduction in the content of reduced glutathione (GHS). To this end, human fibroblasts were cultivated as described in a), exposed to UV-A rays (20 J/cm^2) and the cell counts and the GSH content subsequently determined. The results are set out in Table 3, where they are expressed in %-rel. against a blank sample, and represent the results of 3 series of measurements with triple determination.

[2] = test system: bacterial collagenase (clostridium histolyticum); experiment: Collagenase inhibition on FITC-marked gelatin; format: biochemical; settings: 60 mins. at 20° C.
Description: In the event of inflammation, skin proteases, for example collagenase, are released from the polymorphonuclear neutrophilic granulocytes or macrophages. A similar process takes place in the skin of elderly people on exposure to UV rays. As already mentioned, the proteases—also known as matrix metalloproteases (MMPs) through their content of central zinc ions—catalyze the fragmentation of connective tissue proteins. The test substances were tested for collagenase inhibition using bacterial collagenase (clostridium histolyticum) on gelatin marked with fluorochromium (FITC, Calbiochem) as a natural nutrient medium. The incubation time was 60 mins. at 20° C.; the hydrolysis of the substrate was monitored by fluorescence at 393 nm (excitation at 328 nm). The results are set out in Table 6 as the collagenase inhibition in %.

[3] = test system: melanocytes (B16 cell line); experiment: Inhibition of melanin synthesis in B16 melanocytes; format: cell-based; settings: 3 days, blank value = 100
Description: Melanin is the pigment responsible for the color of the skin and hair. It is formed in special organelles, the melanosomes, which occur in the melanocytes of the basal layer of the human epidermis. The biosynthesis of melanin begins with the amino acid tyrosine which is oxidized to DOPA (dihydroxyphenylalanine) in the presence of tyrosinase. The DOPA then polymerizes to melanin. […] After incubation for 3 days at 37° C./5% CO2, the nutrient medium was replaced by a solution containing the test substances in various concentrations. After incubation for another 3 days, the cell protein content (Bradford's method) and the content of synthesized melanin were determined through the optical density of the homogenizate at 475 nm. The results are expressed in % against a blank value and are set out in Table 7.

human keratinocytes [4] = experiment: Protecting cells against UVB radiation (cell DNA, LDH and PGE2 release); format: cell-based; settings: + UV-B 50 mJ/cm^2; for Cell DNA: blank = 100, control + UV-B = 33; for LDH released / PGE2 released: control + UV-B = 100
Description: UVB was selected as the stress factor because the rays produce cutaneous inflammation (erythemas, oedemas) by activating enzymes that release arachidonic acid, such as phospholipase A2 (PLA2) for example. […] The influence of UVB rays on keratinocytes was determined in vitro through the release of cytoplasmatic enzymes, such as LDH (lactate dehydrogenase) for example, which runs parallel to the cell damage and the formation of PGE2. […] The quantity of keratinocytes was determined after trypsination via a cell counter while the LDH concentration was enzymatically determined. The results are set out in Table 4, where they are expressed as the activity in %-rel. against a standard, and represent the mean value of two test series involving double determination.

[5] = test system: human leukaemic granulocytes; experiment: Anti-inflammatory activity: respiratory burst of granulocytes (zymosan, luminol); format: cell-based; settings: + stimulation (zymosan), blank + stimulation = 100
Excerpt: In the course of cutaneous inflammation, leucocytes, such as the polymorphonuclear neutrophilic granulocytes (PMNs) for example, are stimulated by peptides, such as cytokines for example, to emit messenger substances, such as leucotriene for example, which are released from activated or necrotic cells in the dermis. These activated PMNs release not only pro-inflammatory cytokinins, leucotrienes and proteases, but also ROS, such as superoxides and hypochlorite anions for example, of which the function is to destroy penetrated pathogenic germs or fungi. This activity of the PMNs during the inflammation is known as so-called respiratory burst. To investigate to what extent the test extracts can prevent or reduce the respiratory burst, a cell line of human leukaemic granulocytes of these PMNs was incubated together with the test substances at 37° C. and 5% by vol. CO2. After the respiratory burst had been initiated by addition of a yeast extract (zymosan) to the cell solution, the release of superoxide anions was determined through their reaction with luminol.

human keratinocytes [6] = experiment: Growth inhibition on human keratinocytes with EGF; format: cell-based; settings: with EGF 10 ng/ml, 3 days, control = 100, control with EGF = 167
Description: Increased proliferation and differentiation of keratinocytes of the hair matrix leads to improved longer hair growth. The following test was carried out to determine the potential of the sugar esters for inhibiting hair growth which is visibly reflected in a reduction in the proliferation of human keratinocyte culture in vitro.
To this end, human keratinocytes were cultivated in a standard cell culture medium containing foetal calf serum (FCS). After incubation for 1 day at 37° C./5% CO2, the growth medium was replaced by standard medium containing 10 ng/ml epidermal growth factor (EGF) and various concentrations of sugar esters dissolved in ethanol (1% by volume).
After incubation for three days, the number of living cells was determined by determining the cell protein content by the Bradford method [Bradford, M. M., A rapid and sensitive method for the quantitation of microgram quantities of protein utilizing the principle of protein-dye binding. Anal. Biochem. (1977), Vol. 72, pp. 248-254].
The results of Table 8 represent the values of triple determinations on two batches expressed in % against a control of cell culture medium without sugar ester.

## Trehalose caprate
[1]
  Inhibition zones, Staphylococcus epidermidis: 0 mm
Propionibacterium acnes
  Inhibition zones, Propionibacterium acnes: 10 mm
Staphylococcus aureus
  Inhibition zones, Staphylococcus aureus: 10 mm
Human fibroblasts; conc. 0.00003 % w/v
  Cell proteins: 120 %-rel.
  GSH/proteins: 87 %-rel.
[2]; Conc. [w/v] 0.3
  Collagenase inhibition: 52 %-rel.
[3]; conc. 0.001 % w/v
  Cell melanin: 53 %-rel.
  Cell proteins: 100 %-rel.
[3]; conc. 0.003 % w/v
  Cell melanin: 23 %-rel.
  Cell proteins: 75 %-rel.

## Glucose palmitate
Human fibroblasts; conc. 0.003 % w/v
  Cell proteins: 119 %-rel.
  GSH/proteins: 114 %-rel.
Human keratinocytes [4]; conc. 0.001 % w/v
  Cell DNA: 32 %-rel.
  LDH released: 68 %-rel.
  PGE2 released: 63 %-rel.
Human keratinocytes [4]; conc. 0.003 % w/v
  Cell DNA: 32 %-rel.
  LDH released: 68 %-rel.
  PGE2 released: 65 %-rel.
[5]; conc. 0.001 % w/v
  Cell counts: 102 %-rel.
  ROS released: 99 %-rel.
[5]; conc. 0.01 % w/v
  Cell counts: 91 %-rel.
  ROS released: 58 %-rel.

## Glucose caprate
Human fibroblasts; conc. 0.003 % w/v
  Cell proteins: 109 %-rel.
  GSH/proteins: 144 %-rel.
Human keratinocytes [4]; conc. 0.003 % w/v
  Cell DNA: 28 %-rel.
  LDH released: 72 %-rel.
  PGE2 released: 50 %-rel.
Human keratinocytes [4]; conc. 0.01 % w/v
  Cell DNA: 36 %-rel.
  LDH released: 48 %-rel.
  PGE2 released: 28 %-rel.

## Fructose dicaprate
[3]; conc. 0.003 % w/v
  Cell melanin: 88 %-rel.
  Cell proteins: 105 %-rel.
[3]; conc. 0.01 % w/v
  Cell melanin: 41 %-rel.
  Cell proteins: 91 %-rel.

## Glucose laurate
[1]
  Inhibition zones, Staphylococcus epidermidis: 16 mm
Propionibacterium acnes
  Inhibition zones, Propionibacterium acnes: 10 mm
Staphylococcus aureus
  Inhibition zones, Staphylococcus aureus: 14 mm
Human fibroblasts; conc. 0.0001 % w/v
  Cell proteins: 95 %-rel.
  GSH/proteins: 91 %-rel.
Human keratinocytes [4]; conc. 0.001 % w/v
  Cell DNA: 17 %-rel.
  LDH released: 105 %-rel.
  PGE2 released: 107 %-rel.
Human keratinocytes [4]; conc. 0.003 % w/v
  Cell DNA: 54 %-rel.
  LDH released: 49 %-rel.
  PGE2 released: 23 %-rel.
[2]; Conc. [w/v] 0.1
  Collagenase inhibition: 28 %-rel.

## Fructose stearate
Human fibroblasts; conc. 0.003 % w/v
  Cell proteins: 83 %-rel.
  GSH/proteins: 79 %-rel.
[5]; conc. 0.001 % w/v
  Cell counts: 100 %-rel.
  ROS released: 88 %-rel.
[5]; conc. 0.01 % w/v
  Cell counts: 155 %-rel.
  ROS released: 26 %-rel.
[2]; Conc. [w/v] 0.3
  Collagenase inhibition: 45 %-rel.
[3]; conc. 0.006 % w/v
  Cell melanin: 49 %-rel.
  Cell proteins: 105 %-rel.
[3]; conc. 0.01 % w/v
  Cell melanin: 21 %-rel.
  Cell proteins: 76 %-rel.

## Trehalose laurate
Human fibroblasts; conc. 0.003 % w/v
  Cell proteins: 119 %-rel.
  GSH/proteins: 90 %-rel.
[2]; Conc. [w/v] 0.1
  Collagenase inhibition: 21 %-rel.

## Fructose monostearate
[3]; conc. 0.001 % w/v
  Cell melanin: 85 %-rel.
  Cell proteins: 104 %-rel.
[3]; conc. 0.003 % w/v
  Cell melanin: 34 %-rel.
  Cell proteins: 91 %-rel.

## Fructose palmitate
Human fibroblasts; conc. 0.003 % w/v
  Cell proteins: 91 %-rel.
  GSH/proteins: 81 %-rel.
Human keratinocytes [6]; conc. 0.001 % w/v
  Cell protein content in %: 166%
Human keratinocytes [6]; conc. 0.003 % w/v
  Cell protein content in %: 143%
Human keratinocytes [6]; conc. 0.01 % w/v
  Cell protein content in %: 105%
[5]; conc. 0.001 % w/v
  Cell counts: 97 %-rel.
  ROS released: 81 %-rel.
[5]; conc. 0.01 % w/v
  Cell counts: 98 %-rel.
  ROS released: 42 %-rel.
[2]; Conc. [w/v] 0.03
  Collagenase inhibition: 4 %-rel.
[2]; Conc. [w/v] 0.1
  Collagenase inhibition: 41 %-rel.
[2]; Conc. [w/v] 0.3
  Collagenase inhibition: 78 %-rel.

## Sucrose stearate
[3]; conc. 0.001 % w/v
  Cell melanin: 75 %-rel.
  Cell proteins: 89 %-rel.
[3]; conc. 0.003 % w/v
  Cell melanin: 18 %-rel.
  Cell proteins: 70 %-rel.

## Glucose caprylate
[1]
  Inhibition zones, Staphylococcus epidermidis: 0 mm
Propionibacterium acnes
  Inhibition zones, Propionibacterium acnes: 12 mm
Staphylococcus aureus
  Inhibition zones, Staphylococcus aureus: 11 mm
